{"source": "patent US20110165241A1", "about": "“BAZEDOXIFENE FORMULATIONS WITH ANTIOXIDANTS” (Wyeth LLC, priority 2009, published 2011)", "origin": "cited, not measured here", "key": {"uterine response": {"test_system": "uterine response", "conditions": "in vivo"}, "[1]": {"test_system": "MCF-7 cell line (human breast cancer cell line)"}, "[2]": {"test_system": "ovariectomized rat model of osteopenia", "conditions": "in vivo"}}, "data": [{"smiles": "Cc1c(-c2ccc(O)cc2)n(Cc2ccc(OCCN3CCCCCC3)cc2)c2ccc(O)cc12", "note": "[bazedoxifene, 1-[4-(2-azepan-1-yl-ethoxy)-benzyl]-2-(4-hydroxy-phenyl)-3-methyl-1H-indol-5-ol]", "values": [{"measurement": "stimulation of uterine response", "setting": "uterine response", "result": "little or no stimulation of uterine response"}, {"measurement": "estrogen receptor activity in MCF-7 cells", "setting": "[1]", "result": "behaves as an estrogen antagonist"}, {"measurement": "effect on bone loss and cholesterol", "setting": "[2]", "result": "estrogen agonist-like effect in preventing bone loss and reducing cholesterol"}]}]}
